Measured values as given in patent US10570179B2, “Substituted urea depsipeptide analogs as activators of the CLPP endopeptidase” (priority 2016, dated 2020).
Numbered stars: 1 amine (or outer) side, 2 acyl side, 3 side chain; on linkers, the order of the positions; unused ones are H or OH. Bridge positions count the residues as written; N and C are the ends. Square brackets hold non-standard residues; d marks the D form. Peptide text beside a SMILES is read from it. * marks the point of attachment. Piperazine(2S-CO,4-Me) = CN1CCN[C@H](C(=O)O)C1; Phe(3,5-F2) = N[C@@H](Cc1cc(F)cc(F)c1)C(=O)O; NH(1-Me-indolin-5-yl) = CN1CCc2cc(N*)ccc21; X6 = O=C([C@@H]1CS(=O)(=O)CCN1[*:1])[*:2]; Morpholine(3S-CO) = O=C(O)[C@@H]1COCCN1; Phe(3-Me) = Cc1cccc(C[C@H](N)C(=O)O)c1; Pro(4S-Me) = C[C@@H]1CN[C@H](C(=O)O)C1; NH(4-Cl-2-F-phenyl) = Fc1cc(Cl)ccc1N*; Pro(4R-Me) = C[C@H]1CN[C@H](C(=O)O)C1; Propanoyl(3-NMe2) = CN(C)CCC(=O)*; X1 = O=C([C@@H]1CSCCN1[*:1])[*:2]; Hyp = O=C(O)[C@@H]1C[C@@H](O)CN1; NH(4-Me-phenyl) = Cc1ccc(N*)cc1; aThr = C[C@H](O)[C@H](N)C(=O)O; Pip = O=C(O)[C@@H]1CCCCN1; CO = O=C([*:1])[*:2]; X2 = Fc1cc(N*)ccc1Cl

Assay: Plasma protein binding, rapid equilibrium dialysis
Assay type: in vitro ADME, mouse
Details: mouse, 4 h, 10 μM, pH 7.4
Description: This assay determines plasma protein binding of a drug/compound and free drug concentration in plasma using rapid equilibrium dialysis, which allow the aqueous component of plasma containing the free drug/compound through a dialysis membrane (MWCO˜8,000).
Solutions were prepared at 10 mM in DMSO. Dulbecco's phosphate buffered saline (DPBS; pH 7.4) was obtained from Invitrogen (Carlsbad, Calif.). Single-Use RED (rapid equilibrium dialysis) device was obtained from Thermo scientific (Rockford, Ill.). Human plasma was obtained from Innovative Research INC (Novi, Michigan, Ill).
Sample preparation for plasma protein binding was modified from Waters' method. (Waters et al. (2008) J. Pharm. Sci. 97(10): 4586-95). The Teflon base plate with the RED inserts (MWCO 8 K) were allowed to use without any pre-condition the membrane inserts. Human plasma was thawed and centrifuged at 1000 rpm for 2 min to remove any particulates. Each compound was prepared at 10 μM in human plasma. This was done by adding 1 μL, of drug solution (10 mM in DMSO) to 1000 μL, of human plasma (0.1% DMSO). Spiked plasma solutions (300 μL) were placed into the sample chamber (indicated by the red ring) and 500 μL, of DPBS into the adjacent chamber. The plate was sealed and incubated at 37° C. on an orbital shaker (100 rpm) for 4 hours. After incubation, the seal was removed from the RED plate and the volume of the insert confirmed—little to no volume change occurred. Aliquots (50 μL) were removed from each side of the insert and dispensed into a 96-well deep plate. An equal volume of blank plasma or DPBS was added to the required wells to create analytically identical sample matrices (matrix matching). To each sample 200 μL, of ACN containing 4 μg/mL warfarin IS was added. All of the plates were sealed and mixed well at 600 rpm for 10 min and were centrifuged at 4000 rpm for 20 min. The supernatants (120 μL) were transferred to analytical plates for analysis by LCMS. Conditions for Waters ACQUITY-UPLC-MS-UV system were described separately. The test compound concentrations were quantified in both buffer and plasma chambers via peak areas relative to the internal standard. The percentage of the test compound bound to plasma was calculated on following equations: % Free=(Concentration buffer chamber/concentration plasma chamber)×100% and % Bound=100%-% Free.

| SMILES | Mouse |
| --- | --- |
| C[C@@H]1C[C@H]2C(=O)OC[C@H](NC(=O)[C@H](Cc3cc(F)cc(F)c3)NC(=O)Nc3ccc(Cl)cc3F)C(=O)N3CCC[C@H]3C(=O)N3CCN(C)C[C@H]3C(=O)N[C@@H](C)C(=O)N2C1 [Compound 34] ({NH(4-Cl-2-F-phenyl)-CO}-[Phe(3,5-F2)]SP[Piperazine(2S-CO,4-Me)]A[Pro(4R-Me)]; ester 2-C) | 97.5 ± 7.5% |
| Cc1cccc(C[C@H](NC(=O)Nc2ccc(Cl)c(F)c2)C(=O)N[C@@H]2C(=O)N3CCC[C@H]3C(=O)N3CCCC[C@H]3C(=O)N[C@@H](C)C(=O)N3C[C@H](C)C[C@H]3C(=O)O[C@H]2C)c1 [Compound 35, (S)-2-(3-(4-CHLORO-3-FLUOROPHENYL)UREIDO)-3-(M-TOLYL)-N-((2R,6S,8AS,14AS,20S,21S,23AS)-2,6,21-TRIMETHYL-5,8,14,19,23-PENTAOXOOCTADECAHYDRO-1H,5H,14H,19H-PYRIDO[2,1-I]DIPYRROLO[2,1-C:2′,1′-L][1]OXA[4,7,10,13]TETRAAZACYCLOHEXADECIN-20-YL)PROPANAMIDE] ({X2-CO}-[Phe(3-Me)][aThr]P[Pip]A[Pro(4R-Me)]; ester 2-C) | 99.7 ± 9.7% |
| Cc1cccc(C[C@H](NC(=O)Nc2ccc(Cl)cc2F)C(=O)N[C@@H]2C(=O)N3C[C@H](OC(=O)CCN(C)C)C[C@H]3C(=O)N3CCCC[C@H]3C(=O)N[C@@H](C)C(=O)N3C[C@H](C)C[C@H]3C(=O)O[C@H]2C)c1 [Compound 46, (2R,6S,8AS,14AS,16R,20S,21S,23AS)-20-((S)-2-(3-(4-CHLORO-2-FLUOROPHENYL)UREIDO)-3-(M-TOLYL)PROPANAMIDO)-2,6,21-TRIMETHYL-5,8,14,19,23-PENTAOXOOCTADECAHYDRO-1H,5H,14H,19H-PYRIDO[2,1-I]DIPYRROLO[2,1-C:2′,1′-L][1]OXA[4,7,10,13]TETRAAZACYCLOHEXADECIN-16-YL 3-(DIMETHYLAMINO)PROPANOATE] ({NH(4-Cl-2-F-phenyl)-CO}-[Phe(3-Me)][aThr][Hyp](Propanoyl(3-NMe2))[Pip]A[Pro(4R-Me)]; ester 2-C) | 93.0 ± 0.8% |
| Cc1cccc(C[C@H](NC(=O)Nc2ccc(Cl)cc2F)C(=O)N[C@@H]2C(=O)N3CCC[C@H]3C(=O)N3CCS(=O)(=O)C[C@H]3C(=O)N[C@@H](C)C(=O)N3C[C@H](C)C[C@H]3C(=O)O[C@H]2C)c1 [Compound 40, (S)-2-(3-(4-CHLORO-2-FLUOROPHENYL)UREIDO)-3-(M-TOLYL)-N-((6AS,12S,13S,15AS,17R,21S,23AR)-13,17,21-TRIMETHYL-2,2-DIOXIDO-6,11,15,20,23-PENTAOXOOCTADECAHYDRO-6H,11H,15H-DIPYRROLO[2,1-C:2′,1′-L][1,4]THIAZINO[3,4-I][1]OXA[4,7,10,13]TETRAAZACYCLOHEXADECIN-12-YL)PROPANAMIDE] ({NH(4-Cl-2-F-phenyl)-CO}-[Phe(3-Me)][aThr]P[X6]A[Pro(4R-Me)]; ester 2-C) | 99.4 ± 9.4% |
| Cc1cccc(C[C@H](NC(=O)Nc2ccc(Cl)cc2F)C(=O)N[C@@H]2C(=O)N3C[C@H](O)C[C@H]3C(=O)N3CCSC[C@H]3C(=O)N[C@@H](C)C(=O)N3C[C@H](C)C[C@H]3C(=O)O[C@H]2C)c1 [Compound 41, (S)-2-(3-(4-CHLORO-2-FLUOROPHENYL)UREIDO)-N-((6AS,8R,12S,13S,15AS,17R,21S,23AR)-8-HYDROXY-13,17,21-TRIMETHYL-6,11,15,20,23-PENTAOXOOCTADECAHYDRO-6H,11H,15H-DIPYRROLO[2,1-C:2′,1′-L][1,4]THIAZINO[3,4-I][1]OXA[4,7,10,13]TETRAAZACYCLOHEXADECIN-12-YL)-3-(M-TOLYL)PROPANAMIDE] ({NH(4-Cl-2-F-phenyl)-CO}-[Phe(3-Me)][aThr][Hyp][X1]A[Pro(4R-Me)]; ester 2-C) | 99.9 ± 9.9% |
| Cc1cccc(C[C@H](NC(=O)Nc2ccc(Cl)cc2F)C(=O)N[C@@H]2C(=O)N3CCC[C@H]3C(=O)N3CCSC[C@H]3C(=O)N[C@@H](C)C(=O)N3C[C@H](C)C[C@H]3C(=O)O[C@H]2C)c1 [Compound 38, (S)-2-(3-(4-CHLORO-2-FLUOROPHENYL)UREIDO)-3-(M-TOLYL)-N-((6AS,12S,13S,15AS,17R,21S,23AR)-13,17,21-TRIMETHYL-6,11,15,20,23-PENTAOXOOCTADECAHYDRO-6H,11H,15H-DIPYRROLO[2,1-C:2′,1′-L][1,4]THIAZINO[3,4-I][1]OXA[4,7,10,13]TETRAAZACYCLOHEXADECIN-12-YL)PROPANAMIDE] ({NH(4-Cl-2-F-phenyl)-CO}-[Phe(3-Me)][aThr]P[X1]A[Pro(4R-Me)]; ester 2-C) | 96.0 ± 6.0% |

Same assay, conditions: plasma binding, % Bound, mouse plasma

| SMILES | Mouse |
| --- | --- |
| Cc1ccc(NC(=O)N[C@@H](Cc2cccc(C)c2)C(=O)N[C@H]2COC(=O)[C@@H]3C[C@H](C)CN3C(=O)[C@H](C)NC(=O)[C@@H]3CCCCN3C(=O)[C@@H]3CCCN3C2=O)cc1 (stereo in doubt) [Compound 43, (S)—N-((2S,6S,8AS,14AS,20S,23AS)-2,6-DIMETHYL-5,8,14,19,23-PENTAOXOOCTADECAHYDRO-1H,5H,14H,19H-PYRIDO[2,1-I]DIPYRROLO[2,1-C:2′,1′-L][1]OXA[4,7,10,13]TETRAAZACYCLOHEXADECIN-20-YL)-3-(M-TOLYL)-2-(3-(P-TOLYL)UREIDO)PROPANAMIDE] | 61.7 ± 1.6% |
| Cc1ccc(NC(=O)N[C@@H](Cc2cccc(C)c2)C(=O)N[C@H]2COC(=O)[C@@H]3CCCN3C(=O)[C@H](C)NC(=O)[C@@H]3CCCCN3C(=O)[C@@H]3C[C@@H](O)CN3C2=O)cc1 [Compound 49, (S)—N-((6S,8AS,14AS,16R,20S,23AS)-16-HYDROXY-6-METHYL-5,8,14,19,23-PENTAOXOOCTADECAHYDRO-1H,5H,14H,19H-PYRIDO[2,1-I]DIPYRROLO[2,1-C:2′,1′-L][1]OXA[4,7,10,13]TETRAAZACYCLOHEXADECIN-20-YL)-3-(M-TOLYL)-2-(3-(P-TOLYL)UREIDO)PROPANAMIDE] | 99.4 ± 9.4% |
| Cc1ccc(NC(=O)N[C@@H](Cc2cccc(C)c2)C(=O)N[C@@H]2C(=O)N3CCC[C@H]3C(=O)N3CCCC[C@H]3C(=O)N[C@@H](C)C(=O)N3C[C@@H](C)C[C@H]3C(=O)O[C@H]2C)cc1 [Compound 45, (S)-3-(M-TOLYL)-2-(3-(P-TOLYL)UREIDO)-N-((2S,6S,8AS,14AS,20S,21S,23AS)-2,6,21-TRIMETHYL-5,8,14,19,23-PENTAOXOOCTADECAHYDRO-1H,5H,14H,19H-PYRIDO[2,1-I]DIPYRROLO[2,1-C:2′,1′-L][1]OXA[4,7,10,13]TETRAAZACYCLOHEXADECIN-20-YL)PROPANAMIDE] ({NH(4-Me-phenyl)-CO}-[Phe(3-Me)][aThr]P[Pip]A[Pro(4S-Me)]; ester 2-C) | 92.1 ± 1.3% |
| Cc1ccc(NC(=O)N[C@@H](Cc2cccc(C)c2)C(=O)N[C@@H]2C(=O)N3C[C@H](O)C[C@H]3C(=O)N3CCSC[C@H]3C(=O)N[C@@H](C)C(=O)N3C[C@H](C)C[C@H]3C(=O)O[C@H]2C)cc1 [Compound 42, (S)—N-((6AS,8R,12S,13S,15AS,17R,21S,23AR)-8-HYDROXY-13,17,21-TRIMETHYL-6,11,15,20,23-PENTAOXOOCTADECAHYDRO-6H,11H,15H-DIPYRROLO[2,1-C:2′,1′-L][1,4]THIAZINO[3,4-I][1]OXA[4,7,10,13]TETRAAZACYCLOHEXADECIN-12-YL)-3-(M-TOLYL)-2-(3-(P-TOLYL)UREIDO)PROPANAMIDE] ({NH(4-Me-phenyl)-CO}-[Phe(3-Me)][aThr][Hyp][X1]A[Pro(4R-Me)]; ester 2-C) | 97.4 ± 7.4% |
| C[C@@H]1C[C@H]2C(=O)O[C@@H](C)[C@H](NC(=O)[C@H](Cc3cc(F)cc(F)c3)NC(=O)Nc3ccc4c(c3)CCN4C)C(=O)N3CCC[C@H]3C(=O)N3CCOC[C@H]3C(=O)N[C@@H](C)C(=O)N2C1 [Compound 32] ({NH(1-Me-indolin-5-yl)-CO}-[Phe(3,5-F2)][aThr]P[Morpholine(3S-CO)]A[Pro(4R-Me)]; ester 2-C) | 91.5 ± 1.5% |
